Tests used:
[1] = target: NAMPT (Homo sapiens (Human), UniProt P43490); test: NAMPT biochemical inhibition assay (NMN quantified by mass spectrometry); conditions: NAMPT biochemical inhibition; read-out: Biochem IC50
[2] = system: A2780 cells; test: In-vitro cell proliferation assay (SRB), A2780 cells; format: cell-based; conditions: Homo sapiens, A2780, 72 h, A2780 cells, 72 hours, SRB; read-out: A2780 IC50;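 further: viable cell number read as SRB absorbance, background from media-only wells subtracted, IC50 interpolated from percent inhibition at two bracketing compound concentrations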

Chain of NAMPT (P43490 whole entry): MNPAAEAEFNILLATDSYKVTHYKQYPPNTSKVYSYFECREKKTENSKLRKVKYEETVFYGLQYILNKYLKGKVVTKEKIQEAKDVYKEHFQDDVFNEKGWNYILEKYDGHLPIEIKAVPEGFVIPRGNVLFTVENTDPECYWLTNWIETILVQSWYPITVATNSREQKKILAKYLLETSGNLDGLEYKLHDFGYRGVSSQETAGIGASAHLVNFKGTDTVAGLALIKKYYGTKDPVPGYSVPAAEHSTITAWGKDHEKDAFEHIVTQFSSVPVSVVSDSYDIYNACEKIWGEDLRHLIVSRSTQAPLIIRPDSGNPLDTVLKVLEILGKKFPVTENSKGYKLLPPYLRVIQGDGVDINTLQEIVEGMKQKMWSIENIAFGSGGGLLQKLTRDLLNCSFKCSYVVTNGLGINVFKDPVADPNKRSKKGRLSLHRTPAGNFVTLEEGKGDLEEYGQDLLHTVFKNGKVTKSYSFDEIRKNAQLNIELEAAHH

Row | SMILES | IC50 [1] [nM] | IC50 [2] [nM]
1 | COc1ccc(Cl)cc1N1CCN(S(=O)(=O)c2ccc(NC(=O)NCc3cccnc3)cc2)CC1 [3-{4-[4-(5-chloro-2-methoxyphenyl)piperazine-1-sulfonyl]phenyl}-1-(pyridin-3-ylmethyl)urea] | 2 | 50
2 | Cc1ccc(Cl)cc1N1CCN(S(=O)(=O)c2ccc(NC(=O)NCc3cccnc3)cc2)CC1 [3-{4-[4-(5-chloro-2-methylphenyl)piperazine-1-sulfonyl]phenyl}-1-(pyridin-3-ylmethyl)urea] | 2 | 162
3 | CCN(CC)C1CCN(S(=O)(=O)c2ccc(NC(=O)NCc3cccnc3)cc2)CC1 [3-{4-[4-(diethylamino)piperidine-1-sulfonyl]phenyl}-1-(pyridin-3-ylmethyl)urea] | 5 | 14
4 | CCCN(CCC)C1CCN(S(=O)(=O)c2ccc(NC(=O)NCc3cccnc3)cc2)CC1 [3-{4-[4-(dipropylamino)piperidine-1-sulfonyl]phenyl}-1-(pyridin-3-ylmethyl)urea] | 4 | 3
5 | COCC1CCN(S(=O)(=O)c2ccc(NC(=O)NCc3cccnc3)cc2)CC1 [3-{4-[4-(methoxymethyl)piperidine-1-sulfonyl]phenyl}-1-(pyridin-3-ylmethyl)urea] | 22 | 130
6 | CN(C)c1ccc(S(=O)(=O)c2ccc(NC(=O)NCc3cccnc3)cc2)cn1 [3-{4-[6-(dimethylamino)pyridine-3-sulfonyl]phenyl}-1-(pyridin-3-ylmethyl)urea] | 3 | 74.9
7 | CC(C)(C)CNS(=O)(=O)c1ccc(NC(=O)NCc2cccnc2)cc1 [3-{4-[(2,2-dimethylpropyl)sulfamoyl]phenyl}-1-(pyridin-3-ylmethyl)urea] | 17 | 159
8 | O=C(NCc1cccnc1)Nc1ccc(S(=O)(=O)c2cccc(Cl)c2Cl)cc1 [3-{4-[(2,3-dichlorobenzene)sulfonyl]phenyl}-1-(pyridin-3-ylmethyl)urea] | 1 | 446
9 | O=C(NCc1cccnc1)Nc1ccc(S(=O)(=O)Nc2cccc(Cl)c2Cl)cc1 [3-{4-[(2,3-dichlorophenyl)sulfamoyl]phenyl}-1-(pyridin-3-ylmethyl)urea] | 2 | 30
10 | O=C(NCc1cccnc1)Nc1ccc(S(=O)(=O)c2cccc(F)c2F)cc1 [3-{4-[(2,3-difluorobenzene)sulfonyl]phenyl}-1-(pyridin-3-ylmethyl)urea] | 4 | 546
11 | Cc1cccc(S(=O)(=O)c2ccc(NC(=O)NCc3cccnc3)cc2)c1C [3-{4-[(2,3-dimethylbenzene)sulfonyl]phenyl}-1-(pyridin-3-ylmethyl)urea] | 5 | 298
12 | Cc1cccc(NS(=O)(=O)c2ccc(NC(=O)NCc3cccnc3)cc2)c1C [3-{4-[(2,3-dimethylphenyl)sulfamoyl]phenyl}-1-(pyridin-3-ylmethyl)urea] | 0.9 | 74
13 | O=C(NCc1cccnc1)Nc1ccc(S(=O)(=O)c2ccc(Cl)cc2Cl)cc1 [3-{4-[(2,4-dichlorobenzene)sulfonyl]phenyl}-1-(pyridin-3-ylmethyl)urea] | 4 | 827
14 | O=C(NCc1cccnc1)Nc1ccc(S(=O)(=O)Nc2ccc(Cl)cc2Cl)cc1 [3-{4-[(2,4-dichlorophenyl)sulfamoyl]phenyl]-1-(pyridin-3-ylmethyl)urea] | 3 | 189
15 | O=C(NCc1cccnc1)Nc1ccc(S(=O)(=O)c2ccc(F)cc2F)cc1 [3-{4-[(2,4-difluorobenzene)sulfonyl]phenyl}-1-(pyridin-3-ylmethyl)urea] | 1 | 344
16 | COc1ccc(S(=O)(=O)c2ccc(NC(=O)NCc3cccnc3)cc2)c(OC)c1 [3-{4-[(2,4-dimethoxybenzene)sulfonyl]phenyl}-1-(pyridin-3-ylmethyl)urea] | 5 | 47

Row | SMILES | IC50 [1] [nM] | IC50 [2] [nM]
17 | COc1ccc(NS(=O)(=O)c2ccc(NC(=O)NCc3cccnc3)cc2)c(OC)c1 [3-{4-[(2,4-dimethoxyphenyl)sulfamoyl]phenyl}-1-(pyridin-3-ylmethyl)urea] | 3 | 109
18 | Cc1ccc(S(=O)(=O)c2ccc(NC(=O)NCc3cccnc3)cc2)c(C)c1 [3-{4-[(2,4-dimethylbenzene)sulfonyl]phenyl}-1-(pyridin-3-ylmethyl)urea] | 18 | 967
19 | O=C(NCc1cccnc1)Nc1ccc(S(=O)(=O)c2cc(Cl)ccc2Cl)cc1 [3-{4-[(2,5-dichlorobenzene)sulfonyl]phenyl}-1-(pyridin-3-ylmethyl)urea] | 6 | 652
20 | COc1cc(F)c(S(=O)(=O)c2ccc(NC(=O)NCc3cccnc3)cc2)cc1F [3-{4-[(2,5-difluoro-4-methoxybenzene)sulfonyl]phenyl}-1-(pyridin-3-ylmethyl)urea] | 4 | 105
21 | O=C(NCc1cccnc1)Nc1ccc(S(=O)(=O)c2cc(F)ccc2F)cc1 [3-{4-[(2,5-difluorobenzene)sulfonyl]phenyl}-1-(pyridin-3-ylmethyl)urea] | 4 | 403
22 | COc1ccc(OC)c(S(=O)(=O)c2ccc(NC(=O)NCc3cccnc3)cc2)c1 [3-{4-[(2,5-dimethoxybenzene)sulfonyl]phenyl}-1-(pyridin-3-ylmethyl)urea] | 1 | 7
23 | COc1ccc(OC)c(NS(=O)(=O)c2ccc(NC(=O)NCc3cccnc3)cc2)c1 [3-{4-[(2,5-dimethoxyphenyl)sulfamoyl]phenyl}-1-(pyridin-3-ylmethyl)urea] | 1.2 | 4
24 | Cc1ccc(C)c(S(=O)(=O)c2ccc(NC(=O)NCc3cccnc3)cc2)c1 [3-{4-[(2,5-dimethylbenzene)sulfonyl]phenyl}-1-(pyridin-3-ylmethyl)urea] | 14 | 473
25 | Cc1ccc(C)c(NS(=O)(=O)c2ccc(NC(=O)NCc3cccnc3)cc2)c1 [3-{4-[(2,5-dimethylphenyl)sulfamoyl]phenyl}-1-(pyridin-3-ylmethyl)urea] | 6 | 116
26 | COc1cccc(OC)c1S(=O)(=O)c1ccc(NC(=O)NCc2cccnc2)cc1 [3-{4-[(2,6-dimethoxybenzene)sulfonyl]phenyl}-1-(pyridin-3-ylmethyl)urea] | 7 | 26
27 | Cc1cccc(C)c1S(=O)(=O)c1ccc(NC(=O)NCc2cccnc2)cc1 [3-{4-[(2,6-dimethylbenzene)sulfonyl]phenyl}-1-(pyridin-3-ylmethyl)urea] | 8 | 387
28 | CC(=O)c1ccccc1S(=O)(=O)c1ccc(NC(=O)NCc2cccnc2)cc1 [3-{4-[(2-acetylbenzene)sulfonyl]phenyl}-1-(pyridin-3-ylmethyl)urea] | 2 | 326
29 | O=C(NCc1cccnc1)Nc1ccc(S(=O)(=O)c2ccccc2Br)cc1 [3-{4-[(2-bromobenzene)sulfonyl]phenyl}-1-(pyridin-3-ylmethyl)urea] | 6 | 250
30 | O=C(NCc1cccnc1)Nc1ccc(S(=O)(=O)Nc2ccccc2Br)cc1 [3-{4-[(2-bromophenyl)sulfamoyl]phenyl}-1-(pyridin-3-ylmethyl)urea] | 2 | 24
31 | O=C(NCc1cccnc1)Nc1ccc(S(=O)(=O)Nc2ccc(F)cc2Cl)cc1 [3-{4-[(2-chloro-4-fluorophenyl)sulfamoyl]phenyl}-1-(pyridin-3-ylmethyl)urea] | 0.9 | 36

Reference: patent US11279687B2, “Compounds and compositions for the inhibition of NAMPT” (Valo Health, Inc., priority 2010, dated 2022)
